# Where two headings read alike, the source gives them in different places.
# How the values were obtained:
# in vivo = details: male, Sprague-Dawley, rat, plasma, 10 mg/kg; for half-life: T1/2, rat
# [1] = tested on: hypoxia-induced pulmonary hypertension; details: cited from earlier work
# [2] = Description: High concentrations permit reduced administration times (important for patient compliance), but suffer in that their associated osmolality and intense taste may mitigate this advantage. […] Nebulized solutions were inhaled to a shallow throat level and analyzed for: taste (saltiness), throat irritation, and sore throat. […] Sodium chloride is also considered in the art as helpful to alleviate cough. Therefore, this was also tested.
# Summary. […] Finally, because viscosity and surface tension can be important contributors to optimal I-neb (Respironics, Inc., Murrysville, Pa.), Aerogen Aeroneb Go (Aerogen, Inc., Galway, Ireland) or other vibrating mesh nebulizer performance, potential formulations were screened in these devices to measure the effect of formulation on device output rate and aerosol particle size.
# [3] = tested on: monocrotaline-induced pulmonary hypertension; details: for RV:LV + S: MCT 50 mg/kg sc, three times per week for four weeks
# [4] = for VMD: n = 6, mean ± sd
# Description: It was evaluated in tidal breathing mode (TBM) only.
# The output characteristics of the three nebulizers (one of each type) were measured to determine the particle size distribution, inspired dose, residual dose, nebulizer output and duration of nebulization. The nebulizer efficiency, defined as the inhaled fine particle dose as a percent of the total loaded dose, was also determined. Each nebulizer was studied in duplicate, for a total of 6 measures per device type.
# Particle Sizing. Nebulizers were weighed dry, full, and at the end of each study to determine gravimetric output and residual volume. Nebulizers were connected to the inhalation cell of the Insitec Laser (Malvern Instruments Ltd, Malvern, Worcestershire, UK) using a flexible airtight connector. The nebulizer and inhalation cell were oriented in a horizontal position. The output end of the inhalation cell was connected to a vacuum generator providing a continuous flow of 20 LPM across the laser beam. For measurements made with the I-neb, the output end of the inhalation cell was connected to a breath simulator, which permitted cyclic particle size measurements using the following breathing pattern: Rate=15 bpm, Volume=500 mL, I.T=2.0 seconds. This is the breathing pattern used for the output studies as well.
# Each study was timed from the beginning of nebulization and run for a total of 2 minutes. During the first minute, no measurements were made to allow for equilibration of the solution. Particle sizing was begun and analyzed continuously for the duration of the 2nd minute. All data points were averaged for each measure.
# 1. VMD: Volume Median Diameter
# 2. GSD: Geometric Standard Deviation
# 3. %<3p: The percent of particles <3 microns
# 4. %<5p: The percent of particles <5 microns
# 5. Duration: Two minute total cycle time
# beagle dogs = assay: 7-day inhalation dose range finding toxicology, dog; type: in vivo
# Description: Results & Discussion (Dogs). […] Dogs were exposed to either vehicle (citric acid/saccharin/sodium phosphate buffer), or Formulation I Inhalation Solution prepared in identical vehicle to achieve target doses of 2, 10 or 44 mg/kg/day for 7 days (Table 21). Administered doses were 2, 12 and 54 mg/kg/day. […] Methemoglobin levels in blood increased appreciably in the high-dose group and minimally above basal levels in the mid-dose group (Table 23). Gross necropsies of the treated groups were in general similar to controls which included the presence of small red foci in the lung area, were few in nature and not associated with a dose responsive test-article relationship. Histopathology included mild focal pneumonia with minimal to mild focal peribronchiolar/perivascular mononuclear cell infiltrate and minimal to mild focal alveolar mixed cell infiltrate in the lungs of both the vehicle and high dose groups (low- and mid-dose groups not examined). M/E ratios were decreased in high-dose group males. […] Therefore, based on the transient changes during this 7 day study, an NOAEL of 12 mg/kg/day was established.
# [5] = tested on: normal, healthy volunteers; details: human, device loaded sodium nitrite
# Description: Vial 3 contained 0.1 mM sodium phosphate only. In the preliminary dose escalation to the maximum tolerated dose (MTD), immediately prior to administration, an equal portion of Vial 1 and Vial 2 were admixed and then diluted with Vial 3 contents as appropriate to achieve lower concentration dosing solutions for the dose-escalation protocol. Following establishment of the Vial 1+Vial 2 admixed test material MTD, additional dosing cohorts of 3 subjects were enrolled at the Vial 1+Vial 2 MTD, using Vial 3-diluted Vial 1 contents only.
# Each subject also received vehicle control. The nebulizer used for this study was the Aerogen Idehaler. The Aerogen Idehaler is a combination of two units. The nebulization head is the Aeroneb® Solo (Aerogen, Galway, Ireland) and the aerosol-reservoir attachment Idehaler™ (Diffusion Technique Francais, Saint Etienne, France).
# [6] = inhaled or intranasal, IT (dry powder, normalized to 10 mg/kg)
# [7] = inhaled or intranasal, IT (liquid, 10 mg/kg)
smiles,measurement,setting,value
O=NO [sodium nitrite],hypoxia-induced elevated PAP,"Isolated rabbit lungs; 16.7 mg/mL sodium nitrite in phosphate buffer or phosphate/citric acid buffer, 5 min nebulization",significantly reduced
same,expired nitric oxide compared to control,Isolated rabbit lungs; both sodium nitrite preparations (phosphate buffer; citric acid/phosphate buffer),significantly increased
same,lung-delivered dose up to which lung weights (edema) were stable,Isolated rabbit lungs; mg sodium nitrite (2.8 mg nitrite),up to 4.2 mg
same,decrease of PAP compared with pre-drug hypoxic challenge,"Isolated rabbit lungs; sodium nitrite in phosphate buffer or citric acid/phosphate buffer, nebulized during second hypoxic challenge (3% oxygen), p<0.05",over 50%
same,half life of effect on hypoxia-induced PAP,"Isolated rabbit lungs; sodium nitrite in phosphate buffer, nebulized during third hypoxic challenge",~10 min
same,AUC,in vivo; [6],4270 ng·h/mL
same,AUC,in vivo; [7],2820 ng·h/mL
same,Cmax,in vivo; [6],172 µM
same,Cmax,in vivo; [7],164 µM
same,half-life,in vivo; [6],19 min
same,half-life,in vivo; [7],10 min
same,Tmax,in vivo; [6],5 min
same,Tmax,in vivo; [7],15 min
same,AUC,"in vivo; iv, IV (10 mg/kg)",8120 ng·h/mL
same,Cmax,"in vivo; iv, IV (10 mg/kg)",312 µM
same,half-life,"in vivo; iv, IV (10 mg/kg)",20 min
same,Tmax,"in vivo; iv, IV (10 mg/kg)",5 min
same,"NO in expired air, peak",[1]; after 20 minutes inhalation,approximately 15 ppb
same,reduction in hypoxia-induced pulmonary hypertension compared with saline nebulization,"[1]; newborn lambs, inhaled nitrite 15 mg/minute",approximately 65%
same,minimal effective dose,[1]; newborn lambs,1.5 mg/min
same,time reduction in PAP was maintained after cessation of inhalation,[1]; newborn lambs,at least 1 hour
same,level of nitric oxide produced,"[2]; 75 mg/mL sodium nitrite, 1.56 mM citric acid, […] sodium saccharin, pH 5.41 admixed dosing solution",~200 parts per billion
same,nitric oxide produced and released,[2]; aqueous sodium nitrite titrated with citric acid,~200 parts per billion
same,nitric oxide relative to same formulation lacking ascorbic acid,"[2]; citric acid, pH ~5.5, 1:256 molar ratio ascorbic acid to nitrite",~4 fold
same,nitric oxide produced and released upon vibrating mesh nebulization,"[2]; nitrite:ascorbic acid 256:1 mixture, Aeroneb Go Lab",~800 ppb
same,level of nitric oxide produced,[2]; same dosing solution in the absence of citric acid,~150 parts per billion
same,level of nitric oxide produced,[2]; same formulation with ascorbic acid,~800 parts per billion
same,RV:LV + S,[3]; dry powder 1 μg/kg intratracheal,0.363 ± 0.029
same,RV:LV + S,[3]; dry powder 10 μg/kg intratracheal,0.328 ± 0.025
same,decrease of RV:LV+S,"[3]; high dose (10 μg/kg), p<0.05",up to 48%
same,GSD,[4]; Aeroneb Go,2.1 ± 0.1
same,VMD,[4]; Aeroneb Go,4.6 ± 0.1
same,GSD,[4]; I-neb,1.8 ± 0.1
same,VMD,[4]; I-neb,4.8 ± 0.5
same,GSD,[4]; PARI STAR,2.8 ± 0.1
same,VMD,[4]; PARI STAR,1.7 ± 0.1
same,Mortality (%) Female,beagle dogs; 2 mg/kg/day inhaled,0%
same,Mortality (%) Male,beagle dogs; 2 mg/kg/day inhaled,0%
same,Peak MetHgb (%) On Day 1 Female,beagle dogs; 2 mg/kg/day inhaled,0.35 ± 0.4%
same,Peak MetHgb (%) On Day 1 Male,beagle dogs; 2 mg/kg/day inhaled,0.2 ± 0.1%
same,Peak MetHgb (%) On Day 7 Female,beagle dogs; 2 mg/kg/day inhaled,0.2 ± 0.0%
same,Peak MetHgb (%) On Day 7 Male,beagle dogs; 2 mg/kg/day inhaled,0.2 ± 0.0%
same,Mortality (%) Female,beagle dogs; 12 mg/kg/day inhaled,0%
same,Mortality (%) Male,beagle dogs; 12 mg/kg/day inhaled,0%
same,Peak MetHgb (%) On Day 1 Female,beagle dogs; 12 mg/kg/day inhaled,3.4 ± 1.3%
same,Peak MetHgb (%) On Day 1 Male,beagle dogs; 12 mg/kg/day inhaled,2.6 ± 0.5%
same,Peak MetHgb (%) On Day 7 Female,beagle dogs; 12 mg/kg/day inhaled,1.6 ± 0.2%
same,Peak MetHgb (%) On Day 7 Male,beagle dogs; 12 mg/kg/day inhaled,2.1 ± 0.5%
same,Mortality (%) Female,beagle dogs; 54 mg/kg/day inhaled,0%
same,Mortality (%) Male,beagle dogs; 54 mg/kg/day inhaled,0%
same,Peak MetHgb (%) On Day 1 Female,beagle dogs; 54 mg/kg/day inhaled,19 ± 0.5%
same,Peak MetHgb (%) On Day 1 Male,beagle dogs; 54 mg/kg/day inhaled,16 ± 5.2%
same,Peak MetHgb (%) On Day 7 Female,beagle dogs; 54 mg/kg/day inhaled,17 ± 2.6%
same,Peak MetHgb (%) On Day 7 Male,beagle dogs; 54 mg/kg/day inhaled,16 ± 3.2%
same,% of particles < 3 μm,beagle dogs; Group 2 Low Dose,86.2%
same,MMAD,beagle dogs; Group 2 Low Dose,1.2 μm
same,% of particles < 3 μm,beagle dogs; Group 3 Mid Dose,73.9%
same,MMAD,beagle dogs; Group 3 Mid Dose,1.7 μm
same,% of particles < 3 μm,beagle dogs; Group 4 High Dose,73.3%
same,MMAD,beagle dogs; Group 4 High Dose,1.9 μm
same,well tolerated doses,[5],less than or equal to 125 mg

# — patent publication US20090196930A1, “AEROSOLIZED NITRITE AND NITRIC OXIDE -DONATING COMPOUNDS AND USES THEREOF” (Aires Pharmaceuticals, Inc., priority 2007, published 2009)
